Measured values published in patent publication US12319664B2, “Herbicidally active 3-phenylisoxazoline-5-carboxamides of cyclopentenylcarboxylic acid derivatives” (Bayer Aktiengesellschaft, priority 2018, dated 2025).

What was measured:
VIOTR [1] = experiment: Pre-emergence herbicidal action against VIOTR; assay type: in vivo, Viola tricolor; conditions: application rate 80 g/ha
Text: (§1) 1. Pre-emergence herbicidal action against harmful plants and crop plant compatibility Seeds of monocotyledonous and dicotyledonous weed plants and crop plants are placed in plastic or wood-fibre pots and covered with soil. The compounds of the invention, formulated in the form of wettable powders (WP) or as emulsion concentrates (EC), are then applied onto the surface of the covering soil as aqueous suspension or emulsion with addition of 0.5% additive at a water application rate of 600 l/ha (converted). After the treatment, the pots are placed in a greenhouse and kept under good growth conditions for the trial plants. After about 3 weeks, the effect of the preparations is scored visually in comparison with untreated controls as percentages. For example, 100% activity=the plants have died, 0% activity=like control plants. [table]

LOLRI [2] = experiment: Post-emergence herbicidal action against LOLRI; assay type: in vivo, Lolium rigidum; conditions: application rate 80 g/ha, rated visually after about 3 weeks
How it was run: (§2)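 Greenhouse pot test in sandy loam; plants sprayed at the one-leaf stage, 2 to 3 weeks after sowing, with WP or EC formulations as aqueous suspension/emulsion plus 0.5% additive at 600 l/ha water. Visual rating after about 3 weeks against untreated controls (100% = plants died, 0% = like control).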

AVEFA [3] = experiment: Pre-emergence herbicidal action against AVEFA; assay type: in vivo, Avena fatua; conditions: application rate 80 g/ha, scored visually after about 3 weeks vs untreated controls (100% = plants have died, 0% = like control plants)
Text: as §1

ECHCG [4] = experiment: Pre-emergence herbicidal action against ECHCG; assay type: in vivo, Echinochloa crus-galli; conditions: application rate 80 g/ha, scored visually after about 3 weeks vs untreated controls (100% = plants have died, 0% = like control plants)
Text: as §1

SETVI [5] = experiment: Post-emergence herbicidal action against SETVI; assay type: in vivo, Setaria viridis; conditions: application rate 80 g/ha, rated visually after about 3 weeks
How it was run: as §2

AVEFA [6] = experiment: Post-emergence herbicidal action against AVEFA; assay type: in vivo, Avena fatua; conditions: application rate 80 g/ha, rated visually after about 3 weeks
How it was run: as §2

STEME [7] = experiment: Post-emergence herbicidal action against STEME; assay type: in vivo, Stellaria media; conditions: application rate 80 g/ha, rated visually about 3 weeks after treatment
How it was run: as §2

ECHCG [8] = experiment: Post-emergence herbicidal action against ECHCG; assay type: in vivo, Echinochloa crus-galli; conditions: application rate 80 g/ha, rated visually after about 3 weeks
How it was run: as §2

PHBPU [9] = experiment: Pre-emergence herbicidal action against PHBPU; assay type: in vivo, Pharbitis purpurea; conditions: application rate 80 g/ha
Text: as §1

AMARE [10] = experiment: Pre-emergence herbicidal action against AMARE; assay type: in vivo, Amaranthus retroflexus; conditions: application rate 80 g/ha
Text: as §1

ALOMY [11] = experiment: Pre-emergence herbicidal action against ALOMY; assay type: in vivo, Alopecurus myosuroides; conditions: application rate 80 g/ha, scored visually after about 3 weeks vs untreated controls (100% = plants have died, 0% = like control plants)
Text: as §1

MATIN [12] = experiment: Pre-emergence herbicidal action against MATIN; assay type: in vivo, Matricaria inodora; conditions: application rate 80 g/ha, scored visually after about 3 weeks vs untreated controls (100% = plants have died, 0% = like control plants)
Text: as §1

SETVI [13] = experiment: Pre-emergence herbicidal action against SETVI; assay type: in vivo, Setaria viridis; conditions: application rate 80 g/ha, scored visually after about 3 weeks vs untreated controls (100% = plants have died, 0% = like control plants)
Text: as §1

PHBPU [14] = experiment: Post-emergence herbicidal action against PHBPU; assay type: in vivo, Pharbitis purpurea; conditions: application rate 80 g/ha, rated visually about 3 weeks after treatment
How it was run: as §2

MATIN [15] = experiment: Post-emergence herbicidal action against MATIN; assay type: in vivo, Matricaria inodora; conditions: application rate 80 g/ha, rated visually about 3 weeks after treatment
How it was run: as §2

ALOMY [16] = experiment: Post-emergence herbicidal action against ALOMY; assay type: in vivo, Alopecurus myosuroides; conditions: application rate 80 g/ha, rated visually after about 3 weeks
How it was run: as §2

STEME [17] = experiment: Pre-emergence herbicidal action against STEME; assay type: in vivo, Stellaria media; conditions: application rate 80 g/ha
Text: as §1

HORMU [18] = experiment: Pre-emergence herbicidal action against HORMU; assay type: in vivo, Hordeum murinum; conditions: application rate 80 g/ha
Text: as §1

POLCO [19] = experiment: Pre-emergence herbicidal action against POLCO; assay type: in vivo, Polygonum convolvulus; conditions: application rate 80 g/ha
Text: as §1

LOLRI [20] = experiment: Pre-emergence herbicidal action against LOLRI; assay type: in vivo, Lolium rigidum; conditions: application rate 80 g/ha, scored visually after about 3 weeks vs untreated controls (100% = plants have died, 0% = like control plants)
Text: as §1

VERPE [21] = experiment: Pre-emergence herbicidal action against VERPE; assay type: in vivo, Veronica persica; conditions: application rate 80 g/ha
Text: as §1

POLCO [22] = experiment: Post-emergence herbicidal action against POLCO; assay type: in vivo, Polygonum convolvulus; conditions: application rate 80 g/ha, rated visually about 3 weeks after treatment
How it was run: as §2

AMARE [23] = experiment: Post-emergence herbicidal action against AMARE; assay type: in vivo, Amaranthus retroflexus; conditions: application rate 80 g/ha, rated visually about 3 weeks after treatment
How it was run: as §2

ABUTH = experiment: Post-emergence herbicidal action against ABUTH; assay type: in vivo, Abutilon theophrasti; conditions: application rate 80 g/ha, rated visually about 3 weeks after treatment
How it was run: as §2

HORMU [24] = experiment: Post-emergence herbicidal action against HORMU; assay type: in vivo, Hordeum murinum; conditions: application rate 80 g/ha
How it was run: as §2

VIOTR [25] = experiment: Post-emergence herbicidal action against VIOTR; assay type: in vivo, Viola tricolor; conditions: application rate 80 g/ha, rated visually about 3 weeks after treatment
How it was run: as §2

VERPE [26] = experiment: Post-emergence herbicidal action against VERPE; assay type: in vivo, Veronica persica; conditions: application rate 80 g/ha
How it was run: as §2

Row | Compound | Herbicidal action against [%] VIOTR (VIOTR [1]) | Herbicidal action against [%] LOLRI (LOLRI [2]) | Herbicidal action against [%] AVEFA (AVEFA [3]) | Herbicidal action against [%] ECHCG (ECHCG [4]) | Herbicidal action against [%] SETVI (SETVI [5]) | Herbicidal action against [%] AVEFA (AVEFA [6]) | Herbicidal action against [%] STEME (STEME [7]) | Herbicidal action against [%] ECHCG (ECHCG [8]) | Herbicidal action against [%] PHBPU (PHBPU [9]) | Herbicidal action against [%] AMARE (AMARE [10]) | Herbicidal action against [%] ALOMY (ALOMY [11]) | Herbicidal action against [%] MATIN (MATIN [12]) | Herbicidal action against [%] SETVI (SETVI [13]) | Herbicidal action against [%] PHBPU (PHBPU [14]) | Herbicidal action against [%] ALOMY (ALOMY [16]) | Herbicidal action against [%] STEME (STEME [17]) | Herbicidal action against [%] HORMU (HORMU [18]) | Herbicidal action against [%] POLCO (POLCO [19]) | Herbicidal action against [%] LOLRI (LOLRI [20]) | Herbicidal action against [%] AMARE (AMARE [23]) | also measured
1 | CC1(C(=O)N[C@H]2C=C[C@@H](C(=O)O)C2)CC(c2cccc(F)c2)=NO1 (some centres unmarked) [Example I-002] | 80% | 80% | 80% | 90% | 80% | 80% | 90% | 80% | 90% | 90% | 90% | 80% | 100% | 80% | 90% | 100% | 80% | 90% | 100% |  | Herbicidal action against [%] MATIN (MATIN [15]): 80%
2 | CCOC(=O)C1=CC[C@H](NC(=O)C2(C)CC(c3cccc(F)c3)=NO2)C1 (some centres unmarked) [III-06] | 90% | 90% | 80% | 90% | 80% | 80% | 90% | 80% | 80% |  | 100% |  | 100% |  | 90% | 90% | 90% | 100% | 100% | 80% | Herbicidal action against [%] VERPE (VERPE [21]): 80%; Herbicidal action against [%] POLCO (POLCO [22]): 80%; Herbicidal action against [%] ABUTH (ABUTH): 80%; Herbicidal action against [%] HORMU (HORMU [24]): 90%
3 | CC1(C(=O)NC2CC=C(C(=O)NS(C)(=O)=O)C2)CC(c2cccc(F)c2)=NO1 (mixture of isomers) [IV-07] | 90% | 90% | 80% |  | 80% | 80% | 90% | 80% | 90% | 80% | 100% | 80% | 100% | 80% | 90% | 100% | 90% | 80% | 90% | 80% | Herbicidal action against [%] POLCO (POLCO [22]): 80%; Herbicidal action against [%] VIOTR (VIOTR [25]): 80%; Herbicidal action against [%] VERPE (VERPE [26]): 80%; Herbicidal action against [%] HORMU (HORMU [24]): 90%
4 | CONC(=O)[C@@H]1C=C[C@H](NC(=O)C2(C)CC(c3cc(F)cc(F)c3)=NO2)C1 (some centres unmarked) [II-02] | 90% | 80% | 90% | 80% | 80% | 80% | 90% | 80% | 90% | 100% | 90% | 90% | 100% |  | 80% | 100% |  | 100% | 90% | 80% | 
5 | COC(=O)[C@@H]1C=C[C@H](NC(=O)C2(C)CC(c3cccc(F)c3)=NO2)C1 (some centres unmarked) [Example I-004] |  | 80% | 90% | 100% | 80% | 90% | 80% | 80% | 90% | 80% | 100% | 80% | 100% |  | 80% | 100% |  | 100% | 90% | 80% | 
6 | CC1(C(=O)N[C@H]2CC=C(C(=O)O)C2)CC(c2cccc(F)c2)=NO1 (some centres unmarked) [III-02] |  | 90% | 80% |  | 80% | 90% | 80% | 90% | 80% | 80% | 100% |  |  | 80% | 80% | 80% | 100% |  | 100% | 80% | Herbicidal action against [%] VERPE (VERPE [21]): 90%; Herbicidal action against [%] VERPE (VERPE [26]): 80%; Herbicidal action against [%] HORMU (HORMU [24]): 100%
7 | COC(=O)C1=CC[C@H](NC(=O)C2(C)CC(c3cccc(F)c3)=NO2)C1 (some centres unmarked) [III-04] | 90% | 90% | 90% | 90% | 80% | 100% | 80% | 80% | 90% | 90% | 100% |  | 100% | 90% | 90% | 90% | 100% | 100% | 100% | 80% | Herbicidal action against [%] VERPE (VERPE [21]): 90%; Herbicidal action against [%] POLCO (POLCO [22]): 80%; Herbicidal action against [%] HORMU (HORMU [24]): 100%
8 | CCONC(=O)[C@@H]1C=C[C@H](NC(=O)C2(C)CC(c3cccc(F)c3)=NO2)C1 (some centres unmarked) [II-04] |  | 80% | 80% | 90% | 80% | 80% | 80% | 80% |  | 100% | 100% | 80% | 90% |  | 80% | 100% | 90% | 90% | 90% |  | 
